The NIST ThermoML archive (doi:10.1016/j.jct.2008.06.001)

Assays:
[1] = 101.33 kPa, Liquid; for speed of sound: Sing-around technique in a fixed-path interferometer
[2] = xn = mol fraction of the nth substance listed; conditions: 101 kPa, Liquid

CCCCCCCCCCO [decan-1-ol]
[1]
Conditions | mass density [kg/m3] | speed of sound [m/s]
293.15 K | 829.601 | 1396.2
298.15 K | 826.198 | 1378.9
303.15 K | 822.767 | 1361.7

CCCCCCCCCCO [decan-1-ol] + CCCCOCCCC
[2]
Conditions | mass density [kg/m3]
293.15 K, x1 = 0.1021 | 776.363
293.15 K, x1 = 0.1496 | 779.787
293.15 K, x1 = 0.1993 | 783.289
293.15 K, x1 = 0.25 | 786.71
293.15 K, x1 = 0.2996 | 789.984
293.15 K, x1 = 0.3412 | 792.683
293.15 K, x1 = 0.3978 | 796.258
293.15 K, x1 = 0.4468 | 799.27
293.15 K, x1 = 0.4978 | 802.397
293.15 K, x1 = 0.5495 | 805.461
293.15 K, x1 = 0.6009 | 808.42
293.15 K, x1 = 0.65 | 811.195
293.15 K, x1 = 0.6993 | 813.929
293.15 K, x1 = 0.7464 | 816.506
293.15 K, x1 = 0.7946 | 819.104
293.15 K, x1 = 0.8488 | 821.951
293.15 K, x1 = 0.9004 | 824.616
293.15 K, x1 = 0.95 | 827.118
298.15 K, x1 = 0.0516 | 768.307
298.15 K, x1 = 0.1006 | 772.051
298.15 K, x1 = 0.1498 | 775.68
298.15 K, x1 = 0.2012 | 779.315
298.15 K, x1 = 0.2522 | 782.834
298.15 K, x1 = 0.2996 | 786.011
298.15 K, x1 = 0.35 | 789.331
298.15 K, x1 = 0.3994 | 792.479
298.15 K, x1 = 0.4479 | 795.536
298.15 K, x1 = 0.4981 | 798.656
298.15 K, x1 = 0.5512 | 801.843
298.15 K, x1 = 0.5993 | 804.66
298.15 K, x1 = 0.6492 | 807.539
298.15 K, x1 = 0.6995 | 810.378
298.15 K, x1 = 0.7501 | 813.185
298.15 K, x1 = 0.7981 | 815.763
298.15 K, x1 = 0.8498 | 818.511
298.15 K, x1 = 0.9001 | 821.147
298.15 K, x1 = 0.9498 | 823.681
303.15 K, x1 = 0.0509 | 763.957
303.15 K, x1 = 0.1009 | 767.841
303.15 K, x1 = 0.1503 | 771.536
303.15 K, x1 = 0.1994 | 775.085
303.15 K, x1 = 0.25 | 778.691
303.15 K, x1 = 0.2996 | 782.028
303.15 K, x1 = 0.3498 | 785.36
303.15 K, x1 = 0.3992 | 788.589
303.15 K, x1 = 0.4451 | 791.54
303.15 K, x1 = 0.4944 | 794.601
303.15 K, x1 = 0.5509 | 798.05
303.15 K, x1 = 0.5921 | 800.526
303.15 K, x1 = 0.6514 | 803.989
303.15 K, x1 = 0.6896 | 806.226
303.15 K, x1 = 0.7493 | 809.528
303.15 K, x1 = 0.7963 | 812.111
303.15 K, x1 = 0.8475 | 814.866
303.15 K, x1 = 0.899 | 817.595
303.15 K, x1 = 0.9474 | 820.099

CCCCCCCO [heptan-1-ol]
[1]
Conditions | mass density [kg/m3] | speed of sound [m/s]
293.15 K | 822.398 | 1344
298.15 K | 818.894 | 1326.7
303.15 K | 815.357 | 1309.9

CCCCCCCO [heptan-1-ol] + CCCCOCCCC
[2]
Conditions | mass density [kg/m3]
293.15 K, x1 = 0.1017 | 773.953
293.15 K, x1 = 0.1519 | 776.565
293.15 K, x1 = 0.1998 | 779.042
293.15 K, x1 = 0.2503 | 781.671
293.15 K, x1 = 0.3495 | 786.842
293.15 K, x1 = 0.4019 | 789.598
293.15 K, x1 = 0.4529 | 792.309
293.15 K, x1 = 0.5013 | 794.907
293.15 K, x1 = 0.548 | 797.412
293.15 K, x1 = 0.6032 | 800.39
293.15 K, x1 = 0.6486 | 802.884
293.15 K, x1 = 0.7001 | 805.686
293.15 K, x1 = 0.7515 | 808.582
293.15 K, x1 = 0.7771 | 809.94
293.15 K, x1 = 0.8009 | 811.278
293.15 K, x1 = 0.8982 | 816.689
293.15 K, x1 = 0.947 | 819.42
298.15 K, x1 = 0.0513 | 767.002
298.15 K, x1 = 0.0991 | 769.571
298.15 K, x1 = 0.1526 | 772.412
298.15 K, x1 = 0.2019 | 775.005
298.15 K, x1 = 0.2506 | 777.565
298.15 K, x1 = 0.3033 | 780.366
298.15 K, x1 = 0.3498 | 782.806
298.15 K, x1 = 0.4 | 785.5
298.15 K, x1 = 0.4523 | 788.317
298.15 K, x1 = 0.4995 | 790.883
298.15 K, x1 = 0.5491 | 793.589
298.15 K, x1 = 0.6026 | 796.53
298.15 K, x1 = 0.6503 | 799.167
298.15 K, x1 = 0.6985 | 801.859
298.15 K, x1 = 0.7533 | 804.902
298.15 K, x1 = 0.8005 | 807.562
298.15 K, x1 = 0.8485 | 810.291
298.15 K, x1 = 0.8994 | 813.176
298.15 K, x1 = 0.9439 | 815.703
303.15 K, x1 = 0.0548 | 762.859
303.15 K, x1 = 0.1037 | 765.526
303.15 K, x1 = 0.1537 | 768.203
303.15 K, x1 = 0.2034 | 770.861
303.15 K, x1 = 0.2496 | 773.336
303.15 K, x1 = 0.3003 | 776.062
303.15 K, x1 = 0.3482 | 778.634
303.15 K, x1 = 0.3977 | 781.333
303.15 K, x1 = 0.4501 | 784.185
303.15 K, x1 = 0.4938 | 786.627
303.15 K, x1 = 0.5487 | 789.635
303.15 K, x1 = 0.6009 | 792.536
303.15 K, x1 = 0.6508 | 795.355
303.15 K, x1 = 0.6994 | 798.099
303.15 K, x1 = 0.7519 | 801.07
303.15 K, x1 = 0.8005 | 803.865
303.15 K, x1 = 0.851 | 806.755
303.15 K, x1 = 0.8994 | 809.543
303.15 K, x1 = 0.946 | 812.239

CCCCCCCCO [octan-1-ol]
[1]
Conditions | mass density [kg/m3] | speed of sound [m/s]
293.15 K | 825.183 | 1364.3
298.15 K | 821.732 | 1347.1
303.15 K | 818.248 | 1330.2
